Measurements: patent publication US9512111B2, “N-sulfonylated tetrahydroquinolines and related bicyclic compounds for inhibition of RORγ activity and the treatment of disease” (Lycera Corporation, priority 2010, dated 2016)

Molecular target: T1, RORγ-LBD (Homo sapiens, UniProt P51449)
T1 construct: HIS-tagged RORγ-LBD was recombinantly expressed in SF9 cells; made in house; host or cells: SF9 cells (baculovirus); unpurified lysate
T1 sequence (P51449 269-508 limits assumed): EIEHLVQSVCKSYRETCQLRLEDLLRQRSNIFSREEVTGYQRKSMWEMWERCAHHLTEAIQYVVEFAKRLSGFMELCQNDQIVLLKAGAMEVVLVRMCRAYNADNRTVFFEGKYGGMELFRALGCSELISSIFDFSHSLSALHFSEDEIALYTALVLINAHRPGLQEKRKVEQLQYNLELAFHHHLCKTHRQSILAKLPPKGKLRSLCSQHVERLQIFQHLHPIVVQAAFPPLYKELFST
Assay: RORγ-Ligand Binding Domain TR-FRET Assay
Assay type: biochemical
Protocol: HIS-tagged RORγ-LBD was recombinantly expressed in SF9 cells using a baculovirus expression system. The protein was not purified. Cells were lysed and the lysate was used as a source for RORγ-LBD for the assay. A 1:80 dilution of RORγ-LBD lysate in assay buffer (25 mM HEPES pH 7.0, 100 mM NaCl, 0.01% Tween, 0.1% BSA) was prepared and 5 μL was added to each well (RORγ-LBD final concentration ˜10 nM). Control wells received lysate from SF9 cells not expressing RORγ-LBD.
Compounds to be tested were diluted to 100× final test concentration in DMSO and further diluted to 4× final test concentration using assay buffer to provide the test compound mixture. An aliquot (5 μL) of the test compound mixture was added to each well.
A 4× stock of biotinylated-LXXLL peptide from SRC1-2 (Biotin-[…]) was prepared in assay buffer and a 5 μL aliquot added to each well (450 nM final concentration). A 4× solution of europium tagged anti-HIS antibody (2 nM final concentration) and APC conjugated streptavidin (60 nM final concentration) were prepared and a 5 μL aliquot added to each well.
The final assay mixture was incubated for 4 hours to overnight, and the fluorescence signal was measured on an Envision plate reader: (Excitation filter=340 nm; APC emission=665 nm; Europium emission=615 nm; dichroic mirror=D400/D630; delay time=100 μs, integration time=200 μs).
IC50 values for test compounds were calculated from the quotient of the fluorescence signal at 665 nm divided by the fluorescence signal at 615 nm using GraphPad Prism software.

SMILES | IC50 (Table 8, indazoles) | IC50 (benzoxazines, Table 9)
O=C(Nc1ccc2c(c1)N(S(=O)(=O)c1ccc(F)cc1)CC(C(F)(F)F)O2)c1c(F)cccc1Cl (stereo not shown) [VI-117] | – | < 15 µM
C[C@H]1CN(S(=O)(=O)c2ccc(F)cc2)c2cc(NC(=O)C3(c4ccc(Cl)cc4)CCCC3)ccc2O1 [VI-132] | – | < 15 µM
N#Cc1cccc(S(=O)(=O)N2C[C@@H](CO)Oc3ccc(NC(=O)c4c(F)cccc4Cl)cc32)c1 [VI-59] | – | < 15 µM
C[C@@H](O)[C@H]1CN(S(=O)(=O)c2ccc(F)cc2)c2cc(NC(=O)c3c(Cl)cccc3C(F)(F)F)ccc2O1 [VI-22] | – | < 15 µM
O=C(Nc1ccc2c(c1)N(S(=O)(=O)c1ccc(Cl)cc1)C[C@@H](CO)O2)c1c(F)cccc1Cl [VI-54] | – | < 15 µM
O=C(Nc1ccc2c(c1)N(S(=O)(=O)c1ccc(F)cc1)CCO2)c1c(F)cccc1Cl [Compound 17, 2-Chloro-6-fluoro-N-(4-((4-fluorophenyl)sulfonyl)-3,4-dihydro-2H-benzo[b][1,4]oxazin-6-yl)benzamide] | – | > 15 µM
Cc1cccc(Cl)c1C(=O)Nc1ccc2c(c1)N(S(=O)(=O)c1ccc(F)cc1)C[C@H](C)O2 [VI-21] | – | < 15 µM
N#Cc1cccc(S(=O)(=O)N2C[C@@H](CO)Oc3ccc(NC(=O)Cc4ccc(Cl)cc4)cc32)c1 [VI-56] | – | < 15 µM
C[C@H]1CN(S(=O)(=O)c2ccc(F)cc2)c2cc(NC(=O)c3c(Cl)cccc3C(F)(F)F)ccc2O1 [VI-20] | – | < 15 µM
C[C@H]1CN(S(=O)(=O)c2ccc(F)cc2)c2cc(NC(=O)c3c(Cl)cccc3Cl)ccc2O1 [VI-18] | – | < 15 µM
C[C@@H](O)[C@H]1CN(S(=O)(=O)c2ccc(F)cc2)c2cc(NC(=O)c3c(F)cccc3Cl)ccc2O1 [VI-17] | – | < 15 µM
COCC1CN(S(=O)(=O)c2ccc(F)c(F)c2)c2cc(NC(=O)Cc3ccc(Cl)cc3)ccc2O1 (stereo not shown) [VI-69] | – | > 15 µM
O=C(Nc1ccc2cnn(S(=O)(=O)c3cccc(OC(F)(F)F)c3)c2c1)c1c(Cl)cccc1C(F)(F)F [Compound V-41] | < 15 µM | –
CC(=O)c1cccc(S(=O)(=O)n2ncc3ccc(NC(=O)Cc4ccc(F)c(F)c4)cc32)c1 [Compound V-19] | < 15 µM | –
O=C(Nc1ccc2cnn(S(=O)(=O)c3cc(Cl)ccc3F)c2c1)c1c(F)cccc1Cl [Compound V-169] | < 15 µM | –
CC(=O)Nc1ccc(S(=O)(=O)n2ncc3ccc(NC(=O)c4c(F)cccc4Cl)cc32)cc1Cl [Compound V-149] | < 15 µM | –
O=C(Cc1ccc(Cl)cc1)Nc1ccc2c(c1)N(S(=O)(=O)c1ccc(F)c(F)c1)C[C@@H](CO)O2 [VI-71] | – | < 15 µM
COc1ccccc1S(=O)(=O)n1ncc2ccc(NC(=O)c3c(F)cccc3Cl)cc21 [Compound V-111] | < 15 µM | –
CC(C)(C)c1cccc(S(=O)(=O)n2ncc3ccc(NC(=O)c4c(Cl)cccc4Cl)cc32)c1 [Compound V-67] | < 15 µM | –
Cc1cccc(S(=O)(=O)n2ncc3ccc(NC(=O)c4c(F)cccc4C(F)(F)F)cc32)c1 [Compound V-46] | < 15 µM | –
O=C(Cc1ccc(F)cc1)Nc1ccc2c(c1)N(S(=O)(=O)c1ccc(Cl)cc1)C[C@@H](CO)O2 [VI-53] | – | < 15 µM
O=C(Nc1ccc2cnn(S(=O)(=O)c3ccc(F)c(C(F)(F)F)c3)c2c1)c1c(Cl)cccc1Cl [Compound V-66] | < 15 µM | –
Cc1cc(F)ccc1S(=O)(=O)n1ncc2ccc(NC(=O)c3ccc(F)cc3Cl)cc21 [Compound V-77] | < 15 µM | –
O=C(Nc1ccc2cnn(S(=O)(=O)c3cccc(OC(F)(F)F)c3)c2c1)c1c(F)cccc1C(F)(F)F [Compound V-50] | < 15 µM | –
N#Cc1cccc(S(=O)(=O)N2C[C@@H](CO)Oc3ccc(NC(=O)Cc4ccc(F)cc4)cc32)c1 [VI-58] | – | < 15 µM
O=C(Nc1ccc2cnn(S(=O)(=O)c3ccccc3)c2c1)c1c(F)cccc1Cl [Compound V-159] | < 15 µM | –
Cc1ccc(F)c(S(=O)(=O)n2ncc3ccc(NC(=O)c4c(F)cccc4Cl)cc32)c1 [Compound V-101] | < 15 µM | –
O=C(Nc1ccc2cnn(S(=O)(=O)C3CC3c3ccccc3)c2c1)c1c(F)cccc1Cl (stereo not shown) [Compound V-105] | < 15 µM | –
O=C(Nc1ccc2cnn(S(=O)(=O)c3cccc(Cl)c3F)c2c1)c1c(F)cccc1Cl [Compound V-167] | < 15 µM | –

The remaining lines, values ahead:

IC50 (Table 8, indazoles) | IC50 (benzoxazines, Table 9) | SMILES
< 15 µM | – | O=C(Nc1ccc2cnn(S(=O)(=O)Cc3ccc(Cl)cc3)c2c1)c1c(F)cccc1Cl [Compound V-92]
< 15 µM | – | COc1cccc(S(=O)(=O)n2ncc3ccc(NC(=O)Cc4cnc(C)s4)cc32)c1 [Compound V-7]
< 15 µM | – | N#Cc1ccccc1S(=O)(=O)n1ncc2ccc(NC(=O)c3c(F)cccc3Cl)cc21 [Compound V-87]
< 15 µM | – | O=C(Nc1ccc2cnn(S(=O)(=O)c3cccc(OC(F)F)c3)c2c1)c1c(F)cccc1C(F)(F)F [Compound V-45]
< 15 µM | – | O=C(Nc1ccc2cnn(S(=O)(=O)c3cc(F)cc(C(F)(F)F)c3)c2c1)c1c(F)cccc1Cl [Compound V-161]
< 15 µM | – | CC(C)(C)c1cccc(S(=O)(=O)n2ncc3ccc(NC(=O)Cc4ccc(Cl)cc4)cc32)c1 [Compound V-28]
< 15 µM | – | COc1ccc(S(=O)(=O)n2ncc3ccc(NC(=O)c4c(F)cccc4Cl)cc32)cc1F [Compound V-164]
< 15 µM | – | Cc1cc(C)cc(S(=O)(=O)n2ncc3ccc(NC(=O)c4c(F)cccc4Cl)cc32)c1 [Compound V-123]
< 15 µM | – | Cc1c(F)cccc1S(=O)(=O)n1ncc2ccc(NC(=O)c3c(F)cccc3Cl)cc21 [Compound V-102]
< 15 µM | – | O=C(Nc1ccc2cnn(S(=O)(=O)c3ccccc3F)c2c1)c1c(F)cccc1Cl [Compound V-143]
< 15 µM | – | CC(=O)c1cccc(S(=O)(=O)n2ncc3ccc(NC(=O)c4c(F)cccc4Cl)cc32)c1 [Compound V-122]
< 15 µM | – | O=C(Nc1ccc2cnn(S(=O)(=O)c3ccc(C(F)(F)F)cc3)c2c1)c1c(F)cccc1Cl [Compound V-88]
< 15 µM | – | O=C(Nc1ccc2cnn(S(=O)(=O)c3ccc(F)c(C(F)(F)F)c3)c2c1)c1c(F)cccc1Cl [Compound V-81]
< 15 µM | – | Cc1nn(C(F)F)cc1S(=O)(=O)n1ncc2ccc(NC(=O)Cc3cc(F)cc(F)c3)cc21 [Compound V-14]
< 15 µM | – | O=C(Nc1ccc2cnn(S(=O)(=O)c3cccc(OC(F)F)c3)c2c1)c1c(F)cccc1F [Compound V-58]
< 15 µM | – | C=Cc1nn(S(=O)(=O)c2cccc(C(F)(F)F)c2)c2cc(NC(=O)c3c(F)cccc3Cl)ccc12 [Compound 9, 2-Chloro-6-fluoro-N-[1-(3-trifluoromethylbenzenesulfonyl)-3-vinyl-1H-indazol-6-yl]benzamide]

IC50 (Table 8, indazoles) | IC50 (benzoxazines, Table 9) | SMILES
< 15 µM | – | Cc1ccccc1CS(=O)(=O)n1ncc2ccc(NC(=O)c3c(F)cccc3Cl)cc21 [Compound V-119]
< 15 µM | – | O=C(Nc1ccc2cnn(S(=O)(=O)c3ccccc3Br)c2c1)c1c(F)cccc1Cl [Compound V-84]
< 15 µM | – | O=C(Nc1ccc2cnn(S(=O)(=O)c3ccccc3Cl)c2c1)c1c(F)cccc1Cl [Compound V-136]
< 15 µM | – | O=C(Nc1ccc2cnn(S(=O)(=O)c3ccc(Cl)c(F)c3)c2c1)c1c(F)cccc1Cl [Compound V-80]
< 15 µM | – | Cc1nn(C(F)F)cc1S(=O)(=O)n1ncc2ccc(NC(=O)Cc3ccc(F)cc3)cc21 [Compound V-22]
< 15 µM | – | O=C(Nc1ccc2cnn(S(=O)(=O)c3cccc(Cl)c3)c2c1)c1c(F)cccc1Cl [Compound V-53]
< 15 µM | – | COc1ccc(S(=O)(=O)n2ncc3ccc(NC(=O)c4c(F)cccc4Cl)cc32)cc1 [Compound V-157]
< 15 µM | – | COC(=O)c1cc(C)c(S(=O)(=O)n2ncc3ccc(NC(=O)c4c(F)cccc4Cl)cc32)s1 [Compound V-152]
< 15 µM | – | O=C(Nc1ccc2cnn(S(=O)(=O)Cc3ccc(C(F)(F)F)cc3)c2c1)c1c(Cl)cccc1C(F)(F)F [Compound V-38]
< 15 µM | – | O=C(Nc1ccc2cnn(S(=O)(=O)c3cc(Cl)c(Cl)s3)c2c1)c1c(F)cccc1Cl [Compound V-97]
< 15 µM | – | O=C(Nc1ccc2cnn(S(=O)(=O)c3ccc(OC(F)(F)F)cc3)c2c1)c1c(F)cccc1Cl [Compound V-153]
< 15 µM | – | CC(=O)c1cccc(S(=O)(=O)n2ncc3ccc(NC(=O)Cc4ccc(Cl)cc4)cc32)c1 [Compound V-30]
< 15 µM | – | O=C(Nc1ccc2cnn(S(=O)(=O)c3ccc(F)c(C(F)(F)F)c3)c2c1)c1c(F)cccc1F [Compound V-56]
< 15 µM | – | Cc1ncc(CC(=O)Nc2ccc3cnn(S(=O)(=O)c4cccc(Cl)c4)c3c2)s1 [Compound V-6]
< 15 µM | – | O=C(Nc1ccc2cnn(S(=O)(=O)c3ccc(I)cc3)c2c1)c1c(F)cccc1Cl [Compound V-131]
< 15 µM | – | O=C(Nc1ccc2cnn(S(=O)(=O)c3cccc(C(F)(F)F)c3)c2c1)c1c(Cl)cccc1C(F)(F)F [Compound V-42]
